Patent publication US10385048B2, “Pesticidally active polycyclic derivatives with sulfur containing substituents” (Syngenta Participations AG, priority 2014, dated 2019)

Columns and labels:
Type in all cases: in vivo
Diabrotica Balteata = assay: Diabrotica balteata (corn root worm), maize sprouts, L2 larvae; details: 96 h, application rate 200 ppm, 4 days after infestation, read-out: effect in at least one of the two categories (mortality or growth inhibition)
Protocol: Example B2: Diabrotica Balteata (Corn Root Worm)
Maize sprouts placed onto an agar layer in 24-well microtiter plates were treated with aqueous test solutions prepared from 10′000 ppm DMSO stock solutions by spraying. After drying, the plates were infested with L2 larvae (6 to 10 per well). The samples were assessed for mortality and growth inhibition in comparison to untreated samples 4 days after infestation.

Euschistus heros = Euschistus heros (neotropical brown stink bug), soybean leaves, N2 nymphs; details: 120 h, application rate 200 ppm, 5 days after infestation, read-out: effect in at least one of the two categories (mortality or growth inhibition)
Protocol: Example B3: Euschistus heros (Neotropical Brown Stink Bug)
Soybean leaves on agar in 24-well microtiter plates were sprayed with aqueous test solutions prepared from 10′000 ppm DMSO stock solutions. After drying the leaves were infested with N2 nymphs. The samples were assessed for mortality and growth inhibition in comparison to untreated samples 5 days after infestation.

Plutella xylostella = Plutella xylostella (diamond back moth), artificial diet, L2 larvae; details: 120 h, application rate 200 ppm, 5 days after infestation, read-out: effect in at least one of the two categories (mortality or growth inhibition)
Protocol: Example B7: Plutella xylostella (Diamond Back Moth)
24-well microtiter plates with artificial diet were treated with aqueous test solutions prepared from 10′000 ppm DMSO stock solutions by pipetting. After drying, the plates were infested with L2 larvae (10 to 15 per well). The samples were assessed for mortality and growth inhibition in comparison to untreated samples 5 days after infestation.

Myzus persicae [1] = assay: Myzus persicae (green peach aphid) systemic activity, pea seedling roots; details: 144 h, test rate 24 ppm, 6 days after placing seedlings into test solutions
Myzus persicae [2] = assay: Myzus persicae (green peach aphid) feeding/contact activity, sunflower leaf discs; details: foliar, 144 h, application rate 200 ppm, 6 days after infestation
Protocol: Example B5: Myzus persicae (Green Peach Aphid): Feeding/Contact Activity
Sunflower leaf discs were placed onto agar in a 24-well microtiter plate and sprayed with aqueous test solutions prepared from 10′000 ppm DMSO stock solutions. After drying, the leaf discs were infested with an aphid population of mixed ages. The samples were assessed for mortality 6 days after infestation.

Spodoptera littoralis [3] = assay: Spodoptera littoralis (Egyptian cotton leaf worm), cotton leaf discs, L1 larvae; details: foliar, 72 h, application rate 200 ppm, L1 larvae on cotton leaf discs, 3 days after infestation
Protocol: Example B8: Spodoptera littoralis (Egyptian Cotton Leaf Worm)
Cotton leaf discs were placed onto agar in 24-well microtiter plates and sprayed with aqueous test solutions prepared from 10′000 ppm DMSO stock solutions. After drying the leaf discs were infested with five L1 larvae. The samples were assessed for mortality, anti-feeding effect, and growth inhibition in comparison to untreated samples 3 days after infestation. Control of Spodoptera littoralis by a test sample is given when at least one of the categories mortality, anti-feedant effect, and growth inhibition is higher than the untreated sample.

Spodoptera littoralis [4] = assay: Spodoptera littoralis (Egyptian cotton leaf worm), uptake by lettuce roots from agar, eggs; details: 144 h, test rate 12.5 ppm, lettuce root uptake, 6 days after infestation, read-out: effect in at least one of the three categories (mortality, anti-feeding, or growth inhibition)
Text: Example B9: Spodoptera littoralis (Egyptian Cotton Leaf Worm)
Test compounds were applied by pipette from 10′000 ppm DMSO stock solutions into 24-well plates and mixed with agar. Lettuce seeds were placed onto the agar and the multi well plate was closed by another plate which contained also agar. After 7 days the compound was absorbed by the roots and the lettuce grew into the lid plate. The lettuce leaves were then cut off into the lid plate. Spodoptera eggs were pipetted through a plastic stencil onto a humid gel blotting paper and the lid plate was closed with it. The samples were assessed for mortality, anti-feedant effect and growth inhibition in comparison to untreated samples 6 days after infestation.

Bemisia tabaci = Bemisia tabaci (cotton white fly) feeding/contact activity, cotton leaf discs; details: foliar, 144 h, application rate 200 ppm, adult white flies, 6 days after incubation
Protocol: Example B1: Bemisia tabaci (Cotton White Fly): Feeding/Contact Activity
Cotton leaf discs were placed on agar in 24-well microtiter plates and sprayed with aqueous test solutions prepared from 10′000 ppm DMSO stock solutions. After drying the leaf discs were infested with adult white flies. The samples were checked for mortality 6 days after incubation.

Thrips tabaci = Thrips tabaci (onion thrips) feeding/contact activity, sunflower leaf discs; details: foliar, 144 h, application rate 200 ppm, population of mixed ages, 6 days after infestation
Protocol: Example B11: Thrips tabaci (Onion Thrips) Feeding/Contact Activity
Sunflower leaf discs were placed on agar in 24-well microtiter plates and sprayed with aqueous test solutions prepared from 10′000 ppm DMSO stock solutions. After drying the leaf discs were infested with a thrips population of mixed ages. The samples were assessed for mortality 6 days after infestation.

Aedes aegypti = Aedes aegypti (yellow fever mosquito), dry deposit in 12 well plates, adult females; details: application rate 200 ppm in ethanol, after 48 h and/or 24 h
Protocol: Example B12: Aedes aegypti (Yellow Fever Mosquito)
Test solutions, at an application rate of 200 ppm in ethanol, were applied to 12 well tissue culture plates. Once the deposits were dry, five, two to five day old adult female Aedes aegypti were added to each well, and sustained with a 10% sucrose solution in a cotton wool plug. Assessment of knockdown was made one hour after introduction, and mortality was assessed at 24 and 48 hours after introduction.

Anopheles stephensi = Anopheles stephensi (Indian malaria mosquito), dry deposit in 12 well plates, adult females; details: application rate 200 ppm in ethanol, after 48 h and/or 24 h
Protocol: Example B13: Anopheles stephensi (Indian Malaria Mosquito)
Test solutions, at an application rate of 200 ppm in ethanol, were applied to 12 well tissue culture plates. Once the deposits were dry, five, two to five day old adult female Anopheles stephensi were added to each well, and sustained with a 10% sucrose solution in a cotton wool plug. Assessment of knockdown was made one hour after introduction, and mortality was assessed at 24 and 48 hours after introduction.

CCSc1cc2nc(-c3ncc(C(F)(F)F)cc3SCC)n(C)c2cn1 [Compound P1]
≥ 80%: percent effect (mortality or growth inhibition) at 200 ppm (Diabrotica Balteata) | percent effect (mortality or growth inhibition) at 200 ppm (Euschistus heros) | percent effect (mortality or growth inhibition) at 200 ppm (Plutella xylostella)

CCS(=O)(=O)c1cc(C(F)(F)F)cnc1-c1nc2cc(OC)ncc2n1C [Compound P2]
≥ 80%: mortality at 24 ppm (Myzus persicae [1])

CCS(=O)(=O)c1cc(C(F)(F)F)cnc1-c1nc2cc(OCC(F)F)ncc2n1C [Compound P3]
≥ 80%: percent effect (mortality or growth inhibition) at 200 ppm (Diabrotica Balteata) | percent effect (mortality or growth inhibition) at 200 ppm (Euschistus heros) | mortality at 200 ppm (Myzus persicae [2]) | percent effect (mortality or growth inhibition) at 200 ppm (Plutella xylostella) | percent control (mortality, anti-feedant effect or growth inhibition) at 200 ppm (Spodoptera littoralis [3]) | percent effect (mortality, anti-feeding or growth inhibition) at 12.5 ppm (Spodoptera littoralis [4])

CCS(=O)(=O)c1cc(C(F)(F)F)cnc1-c1nc2cc(OC(F)(F)Br)ncc2n1C [Compound P5, 6-[bromo(difluoro)methoxy]-2-[3-ethylsulfonyl-5-(trifluoromethyl)-2-pyridyl]-3-methyl-imidazo[4,5-c]pyridine]
≥ 80%: mortality at 200 ppm (Bemisia tabaci) | percent effect (mortality or growth inhibition) at 200 ppm (Diabrotica Balteata) | percent effect (mortality or growth inhibition) at 200 ppm (Euschistus heros) | mortality at 200 ppm (Myzus persicae [2]) | percent control (mortality, anti-feedant effect or growth inhibition) at 200 ppm (Spodoptera littoralis [3]) | percent effect (mortality, anti-feeding or growth inhibition) at 12.5 ppm (Spodoptera littoralis [4]) | mortality at 200 ppm (Thrips tabaci) | pest or weed control at 200 ppm (Aedes aegypti) | pest or weed control at 200 ppm (Anopheles stephensi)

CCS(=O)(=O)c1cc(C(F)(F)F)cnc1-c1nc2cc(OC(F)F)ncc2n1C [Compound P6, 6-(difluoromethoxy)-2-[3-ethylsulfonyl-5-(trifluoromethyl)-2-pyridyl]-3-methyl-imidazo[4,5-c]pyridine]
≥ 80%: mortality at 200 ppm (Bemisia tabaci) | percent effect (mortality or growth inhibition) at 200 ppm (Diabrotica Balteata) | mortality at 200 ppm (Myzus persicae [2]) | percent effect (mortality or growth inhibition) at 200 ppm (Plutella xylostella) | percent control (mortality, anti-feedant effect or growth inhibition) at 200 ppm (Spodoptera littoralis [3]) | mortality at 200 ppm (Thrips tabaci)

CCSc1cc(C(F)(F)F)cnc1-c1nc2cc(OC(F)F)ncc2n1C [Compound P7]
≥ 80%: percent control (mortality, anti-feedant effect or growth inhibition) at 200 ppm (Spodoptera littoralis [3])

CCSc1cc(C(F)(F)F)cnc1-c1nc2cc(SC(F)(F)F)ncc2n1C [Compound P11, 2-[3-Ethylsulfanyl-5-(trifluoromethyl)-2-pyridyl]-3-methyl-6-(trifluoromethylsulfanyl)imidazo[4,5-c]pyridine]
≥ 80%: percent effect (mortality or growth inhibition) at 200 ppm (Diabrotica Balteata) | percent effect (mortality or growth inhibition) at 200 ppm (Euschistus heros) | mortality at 200 ppm (Myzus persicae [2]) | percent effect (mortality or growth inhibition) at 200 ppm (Plutella xylostella) | percent control (mortality, anti-feedant effect or growth inhibition) at 200 ppm (Spodoptera littoralis [3]) | pest or weed control at 200 ppm (Aedes aegypti) | pest or weed control at 200 ppm (Anopheles stephensi)

CCSc1cc(C(F)(F)F)cnc1-c1nc2cc(OC(F)F)ncc2n1C [Compound P13, 6-(difluoromethoxy)-2-[3-ethylsulfanyl-5-(trifluoromethyl)-2-pyridyl]-3-methyl-imidazo[4,5-c]pyridine]
≥ 80%: mortality at 200 ppm (Bemisia tabaci) | percent effect (mortality or growth inhibition) at 200 ppm (Diabrotica Balteata) | percent effect (mortality or growth inhibition) at 200 ppm (Euschistus heros) | mortality at 200 ppm (Myzus persicae [2]) | percent effect (mortality or growth inhibition) at 200 ppm (Plutella xylostella) | pest or weed control at 200 ppm (Aedes aegypti) | pest or weed control at 200 ppm (Anopheles stephensi)

CCS(=O)(=O)c1cc(C(F)(F)F)cnc1-c1nc2cc(OCC(F)(F)F)ncc2n1C [Compound P14]
≥ 80%: percent effect (mortality or growth inhibition) at 200 ppm (Euschistus heros) | mortality at 200 ppm (Myzus persicae [2]) | mortality at 24 ppm (Myzus persicae [1])

CCS(=O)(=O)c1cc(C(F)(F)F)cnc1-c1nc2cc([S+]([O-])CC(F)(F)F)ncc2n1C (stereo not drawn) [Compound P15, 2-[3-Ethylsulfonyl-5-(trifluoromethyl)-2-pyridyl]-3-methyl-6-(2,2,2-trifluoroethylsulfinyl)imidazo[4,5-c]pyridine]
≥ 80%: mortality at 200 ppm (Bemisia tabaci) | percent effect (mortality or growth inhibition) at 200 ppm (Diabrotica Balteata) | percent effect (mortality or growth inhibition) at 200 ppm (Euschistus heros) | mortality at 200 ppm (Myzus persicae [2]) | mortality at 24 ppm (Myzus persicae [1]) | percent effect (mortality or growth inhibition) at 200 ppm (Plutella xylostella) | percent control (mortality, anti-feedant effect or growth inhibition) at 200 ppm (Spodoptera littoralis [3]) | percent effect (mortality, anti-feeding or growth inhibition) at 12.5 ppm (Spodoptera littoralis [4]) | mortality at 200 ppm (Thrips tabaci) | pest or weed control at 200 ppm (Aedes aegypti) | pest or weed control at 200 ppm (Anopheles stephensi)

CCS(=O)(=O)c1cc(Br)cnc1-c1nc2cc(SC(F)(F)F)ncc2n1C [Compound P16]
≥ 80%: mortality at 200 ppm (Bemisia tabaci) | percent effect (mortality or growth inhibition) at 200 ppm (Diabrotica Balteata) | percent effect (mortality or growth inhibition) at 200 ppm (Euschistus heros) | mortality at 200 ppm (Myzus persicae [2]) | percent effect (mortality or growth inhibition) at 200 ppm (Plutella xylostella) | percent control (mortality, anti-feedant effect or growth inhibition) at 200 ppm (Spodoptera littoralis [3]) | percent effect (mortality, anti-feeding or growth inhibition) at 12.5 ppm (Spodoptera littoralis [4]) | mortality at 200 ppm (Thrips tabaci) | pest or weed control at 200 ppm (Aedes aegypti) | pest or weed control at 200 ppm (Anopheles stephensi)

CCS(=O)(=O)c1cc(C(F)(F)F)cnc1-c1nc2cc(SCC(F)(F)F)ncc2n1C [Compound P17, 2-[3-Ethylsulfonyl-5-(trifluoromethyl)-2-pyridyl]-3-methyl-6-(2,2,2-trifluoroethylsulfanyl) imidazo[4,5-c]pyridine]
≥ 80%: percent effect (mortality or growth inhibition) at 200 ppm (Diabrotica Balteata) | mortality at 200 ppm (Myzus persicae [2])
